Data set [1] has as its target T1, beta-3 adrenoceptor (Rattus norvegicus, UniProt P26255).
T1 construct: The bladder longitudinal smooth muscle, with the urothelium still attached were mounted in 25 ml organ baths; from tissue; host or cells: isolated bladder longitudinal smooth muscle strips (urothelium attached) from male CD rats
The data set is described as follows: Determination of EC90 concentration to inhibit EFS-induced contraction in rat isolated bladder (pilot CCRC). Format: cell-based. Conditions: PSS with 1 μM prazosin and 30 nM ICI118551, EFS 15 Hz. On the procedure: Macroscopically normal bladders obtained from Male CD rats (220-250 g) were used. […] Each bladder was cleaned free of surrounding connective tissue and halved longitudinally. The bladder longitudinal smooth muscle, with the urothelium still attached were mounted in 25 ml organ baths containing physiological saline solution (PSS) (composition: 119.0 mM NaCl, 4.7 mM KCl, 1.2 mM MgSO4, 24.9 mM NaHCO3, 1.2 mM KH2PO4, 2.5 mM CaCl2 and 11.1 mM glucose) supplemented with 1 μM prazosin (α1-adrenoceptor antagonist) and 30 nM ICI118551 (β2-adrenoceptor antagonist), aerated with 95% O2/5% CO2 gas mix, warmed and maintained at approximately 37° C. throughout the experiment. Changes in force production were recorded using transducers. […]
In initial experiments the parameters for the EFS were assessed by performing a frequency curve to determine a frequency that would give a response that was approximately 80% of the response seen to 80 mM KCl. Optimal EFS parameters were determined to be: 30 Volts, square pulse of 0.1 ms, train of 4 seconds every 120 seconds, 15 Hz. […]
Pilot studies to determine EC90 concentrations of the test compounds were performed. […] From the data obtained in these experiments, EC90 concentrations of the test compounds were determined for use in subsequent experiments. […]

Data set [2] concerns the target T1, beta-3 adrenoceptor. In words: Receptor desensitization: CCRC after incubation with the EC90 concentration and PSS washout, EFS-stimulated rat bladder strips. It is filed as cell-based. On the procedure:
Macroscopically normal bladders obtained from Male CD rats (220-250 g) were used. […] Each bladder was cleaned free of surrounding connective tissue and halved longitudinally. The bladder longitudinal smooth muscle, with the urothelium still attached were mounted in 25 ml organ baths containing physiological saline solution (PSS) (composition: 119.0 mM NaCl, 4.7 mM KCl, 1.2 mM MgSO4, 24.9 mM NaHCO3, 1.2 mM KH2PO4, 2.5 mM CaCl2 and 11.1 mM glucose) supplemented with 1 μM prazosin (α1-adrenoceptor antagonist) and 30 nM ICI118551 (β2-adrenoceptor antagonist), aerated with 95% O2/5% CO2 gas mix, warmed and maintained at approximately 37° C. throughout the experiment. Changes in force production were recorded using transducers. After mounting, the bladder halves were allowed to equilibrate for at least 30 min before they were set to a stable tension of approximately 1.0 g. The tissue was then allowed to equilibrate over at least a 60 min period with washes every 15 min.
In initial experiments the parameters for the EFS were assessed by performing a frequency curve to determine a frequency that would give a response that was approximately 80% of the response seen to 80 mM KCl. Optimal EFS parameters were determined to be: 30 Volts, square pulse of 0.1 ms, train of 4 seconds every 120 seconds, 15 Hz. This frequency was then used to stimulate the tissue for all subsequent experiments. The viability of bladder strips was tested by stimulating the tissue with EFS for minimum of ten minutes.
The bladder muscle strips were incubated with the EC90 determined for each test compound in the pilot studies, for a period of 1 or 3 hr. Following compound incubation, the tissues were washed with PSS for a period of 1, 3 or 6 hr, with washes approximately every 15 min, to remove the drug. At the end of the final wash period the tissues were stimulated with EFS, and left to equilibrate for at least 30 min. A CCRC was then performed in each tissue. Tissue responses were calculated as the mean (SEM) and expressed as percentage of EFS induced tone.
Tissues were incubated with the EC90 concentration of the test compounds for one hr followed by one hr, three hr or six hr of washing with PSS. […] This EFS-induced potentiation of bladder contraction from baseline was not observed with solabegron.
In the next series of experiments, tissues were incubated with the EC90 concentration of the test compounds for three hr followed by either one hr, three hr or six hr of washing with PSS.

Data set [3] is described as follows: Absorption of solabegron in regions of the GI tract. It is filed as in vivo. The settings on record: solabegron and pharmaceutical salts thereof. The text has this: (§1) For example, some compounds are differentially absorbed in different regions of the GI tract. […] Under these improved conditions, a second release of solabegron and absorption will result. Additionally, methods for the release of solabegron in the distal GI tract based on pH are presented herein.

For data set [4] the following is noted: women with moderate to severe OAB; cited from earlier work.
Data set [5] can be described thus: pH-dependent solubility of solabegron. It is filed as physicochemical.
Description: as §1

[6] abbreviates: three hr incubation with EC90 concentration, one hr of washing.

As a reminder, the EC90 is the concentration needed for an effect of 90%. Lower therefore signals greater potency.

T1 sequence (P26255 whole entry): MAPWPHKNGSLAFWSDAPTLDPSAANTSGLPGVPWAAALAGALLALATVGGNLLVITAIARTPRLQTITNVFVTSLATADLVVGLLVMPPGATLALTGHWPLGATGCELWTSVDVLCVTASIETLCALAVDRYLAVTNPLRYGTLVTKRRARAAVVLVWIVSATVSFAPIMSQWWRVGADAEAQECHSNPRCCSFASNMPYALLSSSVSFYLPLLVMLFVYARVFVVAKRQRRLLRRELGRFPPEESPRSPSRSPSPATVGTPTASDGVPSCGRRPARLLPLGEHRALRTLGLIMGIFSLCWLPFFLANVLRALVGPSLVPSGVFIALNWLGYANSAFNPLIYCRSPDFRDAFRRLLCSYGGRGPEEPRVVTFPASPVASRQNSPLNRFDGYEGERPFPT

Compound `C[C@H](Cc1ccc2c(c1)OC(C(=O)[O-])(C(=O)[O-])O2)NC[C@H](O)c1cccc(Cl)c1.[Na+].[Na+]` [CL-316,243, reference compound] returned an EC90 in data set [1] of 42 nM. Further, the “Response to agonist (CCRC, reduction of EFS-induced tone) versus vehicle-incubated tissue” value in data set [2] (setting [6]) is “significantly attenuated”.
Take `O=C(O)c1cccc(-c2cccc(NCCNC[C@H](O)c3cccc(Cl)c3)c2)c1` [solabegron, 3′-[(2-{[(2R)-2-(3-chlorophenyl)-2-hydroxyethyl]amino}ethyl)amino]biphenyl-3-carboxylic acid]: the “Absorption in the GI tract” value in data set [3] is “optimum absorption in the proximal GI tract”. For the same compound, in data set [4], the “Effect on symptoms of overactive bladder” value is “significantly reduce the symptoms of overactive bladder”. Further, the “Safety, tolerability, adverse events compared to placebo” value in data set [4] was “safe, well-tolerated, and does not demonstrate significant differences in adverse events as compared to placebo”. This compound had a 90% effect concentration (EC90) in data set [1] of 1000 nM. In addition, the “Response to agonist (CCRC, reduction of EFS-induced tone) versus vehicle-incubated tissue” value in data set [2] (one hr incubation with EC90 concentration, one hr of washing) was “significantly attenuated”; in data set [2] (one hr incubation with EC90 concentration, three hr of washing, higher concentrations), “significantly attenuated”; in data set [2] (setting [6]), “significantly attenuated”; in data set [2] (three hr incubation with EC90 concentration, three hr of washing, highest concentrations), “significantly attenuated”. For the same compound, the Solubility result in data set [5] was “pH-dependent solubility”.
